Experimental data: patent US7049455B2, “Process for producing shogaols and intermediates for the synthesis thereof” (Toagosei Co., Ltd., priority 2002, dated 2006)
Entries after “also recorded” stand apart in the source; their conditions may differ.

Tested on: mushroom-derived tyrosinase
Experiment: inhibition of the activity of mushroom-derived tyrosinase, L-dopa as substrate
Type: biochemical
Details: L-dopa as a substrate, compared with arbutin (Tokyo Kasei Kogyo)
Text: A test of [6]-shogaol obtained in Example 5 about the inhibition of the activity of mushroom-derived tyrosinase was done, using L-dopa as a substrate.

`CCCCC/C=C/C(=O)CCc1ccc(O)c(OC)c1` [[6]-shogaol] was tested. Which “inhibition of tyrosinase activity” value did it give?
Its value is “inhibited tyrosinase activity; also recorded: inhibitory activity at the same level as that of arbutin”.
